Data as given in patent US12048700B2 (Merck Patent GmbH, priority 2017, dated 2024).
Where two headings read alike, the source gives them in different places.

Columns and labels:
[1] = Water content of the sample before DVS (TG-FTIR mass loss or Karl Fischer titration)
Description: Thermogravimetric measurements were carried out with a Netzsch Thermo-Microbalance TG 209 coupled to a Bruker FTIR Spectrometer Vector 22 (sample pans with a pinhole, N2 atmosphere, heating rate 10 K/min).
A sample of crystalline monosodium salt according to at least one of the previous examples is investigated by thermogravimetry coupled with infrared spectroscopy (TG-FTIR). Thermogravimetric measurements were done with a sample mass of about 6 mg. […] The same sample is now examined by dynamic vapor sorption analysis (DVS). About 20 mg of sample are placed put into an aluminum sample pan. Humidity change rates of 5% per hour were used. […] The sample was placed on an aluminum holder on top of a microbalance and allowed to equilibrate at 50% RH before starting the pre-defined humidity program in the following way: • (1) 2 hours at 50% relative humidity • (2) 50→0% relative humidity (5%/hour); 10 hours at 0% relative humidity • (3) 0→75% relative humidity (5%/hour); 5 hours at 75% relative humidity • (4) 75→0% relative humidity (5%/hour); 10 hours at 0% relative humidity • (5) 0→50% relative humidity (5%/hour); 2 hours at 50% relative humidity
A sample of crystalline calcium salt of MTHF is examined by Karl Fischer titration to evaluate the water content. […]

[2] = 25° C./60% rh
[3] = DVS; for removal of water on drying (in words): ten hours of nitrogen purge at room temperature
Description: DVS measurements are typically performed at 25° C. with an SPS11-100n “Sorptions Prüfsystem” from ProUmid (formerly “Projekt Messtechnik”), August-Nagel-Str. 23, 89079 Ulm (Germany).

[4] = 40° C./75% rh
[5] = room temperature; suspension stirred 30 minutes with excess solid
[6] = room temperature; purified/de-ionized water; vigorously agitated and briefly sonicated
Description: 2.535 ml of purified/de-ionized water (for instance water for chromatography) is added to the solid using an adjustable volumetric pipette. The mixture is vigorously agitated at room temperature and briefly sonicated.

Row | Compound | mass loss at 200° C. (TG-FTIR), essentially the water content ([1]; after drying in air at room temperature, sample mass about 6 mg) | 5-methyl-(6S)-tetrahydrofolic acid content ([2]; 0 months) [% w/w] | 5-methyl-(6S)-tetrahydrofolic acid content ([2]; 3 months) [% w/w] | 5-methyl-(6S)-tetrahydrofolic acid content ([2]; 6 months) [% w/w] | 5-methyl-(6S)-tetrahydrofolic acid content ([2]; 9 months) [% w/w] | 5-methyl-(6S)-tetrahydrofolic acid content ([2]; 12 months) [% w/w] | hygroscopicity compared with the calcium salt (in words) ([3]; relative humidity 20% to 75%) | removal of water on drying (in words) ([3]; listed as crystalline monosodium salt, monosodium salt) | removal of water on drying (in words) ([3]; listed as crystalline sodium salt of 5-methyl-(6S)-tetrahydrofolic acid, monosodium salt) | 5-methyl-(6S)-tetrahydrofolic acid content ([4]; 0 months) [% w/w] | 5-methyl-(6S)-tetrahydrofolic acid content ([4]; 3 months) [% w/w] | 5-methyl-(6S)-tetrahydrofolic acid content ([4]; 6 months) | 5-methyl-(6S)-tetrahydrofolic acid content ([4]; 9 months) [% w/w] | 5-methyl-(6S)-tetrahydrofolic acid content ([4]; 12 months) [% w/w] | water content (Karl Fischer titration) ([1]; sample before DVS) [%] | solubility in water [5] [µg/mL] | removal of water on drying (in words) [3] | kinetic solubility in water [6]
1 | CN1c2c(nc(N)[nH]c2=O)NC[C@@H]1CNc1ccc(C(=O)N[C@@H](CCC(=O)[O-])C(=O)O)cc1.[Na+] [5-methyl-(6S)-tetrahydrofolic acid monosodium salt] | about 1.3% | 94.7 | 93.0 | 94.2 | 95.6 | 94.1 | less hygroscopic | all the water of the sample is essentially removed | water can essentially be removed | 94.7 | 92.7 | (81.8)^1 % w/w | 94.8 | 92.9 | – | – | – | –
2 | CN1c2c([nH]c(N)nc2=O)NC[C@@H]1CNc1ccc(C(=O)N[C@@H](CCC(=O)[O-])C(=O)[O-])cc1.[Ca+2] [calcium salt of 5-methyl-(6S)-tetrahydrofolic acid] | – | 80.7 | 79.0 | 77.7 | 78.5 | 77.9 | – | – | – | 80.7 | 78.5 | 78.0 % w/w | 78.8 | 77.8 | 12.4 | 7100 | less than half of the water can be removed | smaller than 10 mg per 1 ml of water
